# Measured values: patent US7160725B2, “Hedgehog signaling promotes the formation of three dimensional cartilage matrices” (Curis, Inc., priority 2001, dated 2007)
# Entries after “also recorded” stand apart in the source; their conditions may differ.
# Legend:
# Format in all cases: cell-based, human
# [1] = test system: Mesenchymal stem cells; experiment: Change in mesenchymal stem cell behavior following factor treatment (culture observation)
# Protocol: Mesenchymal stem cells were derived from human volunteers under general anesthesia. Bone marrow was harvested from the iliac crest by aspiration. Approximately 5 mL of bone marrow was suspended in essential medium containing 20% fetal bovine serum (FBS), antibiotics, and glutamine (Sigma). […] The non-adherent cells, as well as any debris, is easily separated from the adherent mesenchymal stem cells.
# Mesenchymal stem cells were plated at a density of 1×10^6/mL in a six well plate. Following adhesion of the cells to the plate, cells were treated with either medium containing 20% FBS, with medium supplemented with TGFβ-1, or with medium supplemented with sonic hedgehog.
# Following adhesion of cells to the plate, cells were treated with either medium containing 20% FBS (negative control), medium containing 1 ng/mL TGFβ-1, or medium containing 100 ng/mL of the lipid modified N-terminal fragment of sonic hedgehog. In all cases, the medium was changes twice per week throughout the duration of the experiment.
# [2] = test system: Mesenchymal stem cells; experiment: Hematoxyline-eosine staining of paraffin sections of treated tissue; settings: 100 ng/mL lipid modified sonic hedgehog; 21 days
# Protocol: (§1) Mesenchymal stem cell cultures were established, as described in detail above. Cells were cultured in the presence of 20% FBS, 1 ng/mL TGFβ-1, or 100 ng/mL lipid modified sonic hedgehog, and the medium was changed twice per week. After 21 days in culture, tissue was harvested, and fixed overnight in formaline solution. Fixed tissue was washed, dehydrated, embedded in paraffin, and 4 μm sections were cut using a microtome. Sections were mounted on adhesive slides, and processed for histology and immunohistochemistry.
# Mounted paraffin sections were stained with hematoxyline-eosine, and viewed under a light microscope.
# [3] = test system: Mesenchymal stem cells; experiment: Alcian blue staining of paraffin sections of treated tissue; settings: 100 ng/mL lipid modified sonic hedgehog; 21 days; Alcian blue pH 2.5
# Protocol: as §1
# Mounted paraffin sections were stained with Alcian blue. Sections were treated with Alcian blue, pH 2.5 and 3% Acetic acid for five minutes. Following treatment, the sections were washed with ultrapure water.
# [4] = test system: Mesenchymal stem cells; experiment: Immunohistochemistry of paraffin sections of treated tissue; settings: 100 ng/mL lipid modified sonic hedgehog; 21 days
# Protocol: as §1
# Mounted paraffin sections were processed for immunohistochemistry with an automatic stainer (DAKO TechMate™) using indirect streptavidin-biotin methods with a Fuchsintype chromogen. The following primary antibodies were used: vimentin, collagen II, Indian hedgehog, PTHrp, BMPR-IA, BMPR-IB, and BMPR-II. Immunohistochemistry was by standard methods except for the PTHrp antibody which required incubation of the tissue with proteinase K.
# [5] = 1 ng/mL TGFβ-1, after a week in culture
substance,measurement,setting,value
"TGFβ-1: TGFβ family polypeptide, added to the culture medium at 1 ng/mL",cell morphology,[1]; [5],morphologically distinct
same,cell size,[1]; [5],larger
same,proliferative effects on mesenchymal stem cells,[1]; treatment with TGFβ-1,robust proliferative effects
sonic hedgehog,cell migration and clustering in the culture well,"[1]; 100 ng/mL lipid modified N-terminal fragment of sonic hedgehog, after the first two weeks in culture",appeared to migrate and clustered in one half the area of the culture well
same,formation of a ball of tissue from the cell cluster,"[1]; 100 ng/mL lipid modified N-terminal fragment of sonic hedgehog, approximately three weeks in culture",condensed and migrated to form a small ball; also recorded: formed a grayish-white ball
same,cell proliferation in culture,"[1]; 100 ng/mL lipid modified N-terminal fragment of sonic hedgehog, first two weeks in culture",proliferated efficiently
same,"tissue organization and matrix production (hematoxyline-eosine, light microscope)",[2],"extensive organization of the tissue, the intricate folding of the layers, and the abundant matrix production; also recorded: highly organized, contains several folded layers, and produces abundant matrix"
same,Alcian blue staining (acid mucopolysaccharids),[3],Positive
same,BMPR-IA immunostaining,[4],not detected; also recorded: immunonegative
same,BMPR-IB immunostaining,[4],immunopositive
same,BMPR-II immunostaining,[4],immunopositive
same,Indian hedgehog immunostaining,[4],immunonegative
same,PTHrp immunostaining,[4],immunopositive
same,collagen II immunostaining,[4],strongly expressed; also recorded: strongly immunopositive
same,vimentin immunostaining,[4],strongly immunopositive
